Results from US9394311B2, “Triazolo compounds as PDE10 inhibitors” (Hoffmann-La Roche Inc., priority 2012, dated 2016).
pIC50: −log10 of the molar value.

molecular target: human PDE10A (Homo sapiens (Human), UniProt Q9Y233); assay: human PDE10A full length Scintillation Proximity Assay (SPA); format: biochemical; settings: PDE10A full length enzyme, 50 nM cGMP / [3H]-cGMP substrate, 20 minutes at room temperature
Method: The following test was carried out in order to determine the activity of the compounds of the present invention. PDE10 activity of the compounds of the present invention was determined using a Scintillation Proximity Assay (SPA)-based method similar to the one previously described (Fawcett, L. et al., Proc Natl Acad Sci USA (2000) 97(7):3702-3707).
The human PDE10A full length assay was performed in 96-well micro titer plates. The reaction mixture of 50 μl contained 20 mM HEPES pH=7.5/10 mM MgCl2/0.05 mg/ml BSA (Sigma cat. # A-7906), 50 nM cGMP (Sigma, cat. # G6129) and 50 nM [3H]-cGMP (GE Healthcare, cat. # TRK392 S.A. 13.2 Ci/mmol), 3.75 ng/well PDE10A enzyme (Enzo Life Science, Lausen, Switzerland cat # SE-534) with or without a specific test compound. A range of concentrations of the potential inhibitor was used to generate data for calculating the concentration of inhibitor resulting in 50% of the effect (e.g. IC50, the concentration of the competitor inhibiting PDE10A activity by 50%). Non-specific activity was tested without the enzyme. The reaction was initiated by the addition of the substrate solution (cGMP and [3H]-cGMP) and allowed to progress for 20 minutes at room temperature. The reaction was terminated by adding 25 μl of YSi-SPA scintillation beads (GE Healthcare, cat. # RPNQ0150) in 18 mM zinc sulphate solution (stop reagent). After 1 h under shaking, the plate was centrifuged one minute at 170 g to allow beads to settle. Afterwards, radioactive counts were measured on a Perkin Elmer Top-Count Scintillation plate reader.

Chain of human PDE10A (Q9Y233 other isoform, or with tags, fused parts or gaps): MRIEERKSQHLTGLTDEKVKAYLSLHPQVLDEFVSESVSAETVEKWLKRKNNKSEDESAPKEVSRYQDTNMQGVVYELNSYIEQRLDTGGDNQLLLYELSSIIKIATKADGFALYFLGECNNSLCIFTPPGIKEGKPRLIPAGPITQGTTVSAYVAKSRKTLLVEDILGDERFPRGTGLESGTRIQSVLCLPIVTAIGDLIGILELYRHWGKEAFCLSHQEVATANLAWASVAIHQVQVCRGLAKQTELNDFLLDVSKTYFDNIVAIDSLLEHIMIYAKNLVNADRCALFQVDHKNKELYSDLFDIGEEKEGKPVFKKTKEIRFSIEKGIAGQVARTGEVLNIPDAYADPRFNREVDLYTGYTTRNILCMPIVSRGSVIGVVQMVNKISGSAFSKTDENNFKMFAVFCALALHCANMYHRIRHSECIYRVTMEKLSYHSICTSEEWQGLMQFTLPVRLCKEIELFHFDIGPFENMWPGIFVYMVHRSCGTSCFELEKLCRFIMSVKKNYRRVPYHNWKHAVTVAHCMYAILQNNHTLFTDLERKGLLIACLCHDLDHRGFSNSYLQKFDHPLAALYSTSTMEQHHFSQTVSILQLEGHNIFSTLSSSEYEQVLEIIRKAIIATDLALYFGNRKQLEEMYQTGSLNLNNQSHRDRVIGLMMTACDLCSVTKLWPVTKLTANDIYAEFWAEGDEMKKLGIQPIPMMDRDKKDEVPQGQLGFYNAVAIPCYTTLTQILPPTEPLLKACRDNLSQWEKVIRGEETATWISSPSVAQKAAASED

pIC50	SMILES
8.67	Cc1c(C#N)cc(Cl)c2nc(CCc3nc(N4CCCC4)nn3C)nn12 [Example 74, 8-Chloro-5-methyl-2-[2-(2-methyl-5-pyrrolidin-1-yl-2H-[1,2,4]triazol-3-yl)-ethyl]-[1,2,4]triazolo[1,5-c]pyridine-6-carbonitrile]
8.42	CCc1cnc(C)n2nc(CCc3nc(N4CCCC4)nn3C)nc12 [Example 75, 8-Ethyl-5-methyl-2-(2-(1-methyl-3-(pyrrolidin-1-yl)-1H-1,2,4-triazol-5-yl)ethyl)-[1,2,4]triazolo[1,5-c]pyrimidine]
9.36	COc1cc(Cl)c(C)n2nc(CCc3nc(N4CCCC4)nn3C)nc12 [Example 76, 6-Chloro-8-methoxy-5-methyl-2-[2-(2-methyl-5-pyrrolidin-1-yl-2H-[1,2,4]triazol-3-yl)-ethyl]-[1,2,4]triazolo[1,5-a]pyridine]
8.00	Cc1c(Cl)cc(C2CC2)c2nc(CCc3nc(N4CCCC4)nn3C)nn12 [Example 77, 6-Chloro-8-cyclopropyl-5-methyl-2-[2-(2-methyl-5-pyrrolidin-1-yl-2H-[1,2,4]triazol-3-yl)-ethyl]-[1,2,4]triazolo[1,5-a]pyridine]
7.51	Cc1c(C#N)cc(C#N)c2nc(CCc3nc(N4CCCC4)nn3C)nn12 [Example 78, 5-Methyl-2-[2-(2-methyl-5-pyrrolidin-1-yl-2H-[1,2,4]triazol-3-yl)-ethyl]-[1,2,4]triazolo[1,5-c]pyridine-6,8-dicarbonitrile]
8.65	Cc1c(Cl)cc(C#N)c2nc(CCc3nc(N4CCCC4)nn3C)nn12 [Example 79, 6-Chloro-5-methyl-2-[2-(2-methyl-5-pyrrolidin-1-yl-2H-[1,2,4]triazol-3-yl)-ethyl]-[1,2,4]triazolo[1,5-c]pyridine-8-carbonitrile]
7.12	Cc1c(Cl)cc(C(C)(C)O)c2nc(CCc3nc(N4CCCC4)nn3C)nn12 [Example 80, 2-{6-Chloro-5-methyl-2-[2-(2-methyl-5-pyrrolidin-1-yl-2H-[1,2,4]triazol-3-yl)-ethyl]-[1,2,4]triazolo[1,5-c]pyridin-8-yl}-propan-2-ol]
7.13	Cc1cnc(C)n2nc(/C=C/c3nc(N4CCC4)nn3C)nc12 [Example 81, 2-[(E)-2-(5-Azetidin-1-yl-2-methyl-2H-[1,2,4]triazol-3-yl)-vinyl]-5,8-dimethyl-[1,2,4]triazolo[1,5-c]pyrimidine]
9.32	Cc1c(Br)cc(C(F)(F)F)c2nc(CCc3nc(N4CCCC4)nn3C)nn12 [Example 82, 6-Bromo-5-methyl-2-[2-(2-methyl-5-pyrrolidin-1-yl-2H-[1,2,4]triazol-3-yl)-ethyl]-8-trifluoromethyl-[1,2,4]triazolo[1,5-c]pyridine]
8.16	Cc1c(C#N)cc(C(F)(F)F)c2nc(CCc3nc(N4CCCC4)nn3C)nn12 [Example 83, 5-Methyl-2-(2-(1-methyl-3-(pyrrolidin-1-yl)-1H-1,2,4-triazol-5-yl)ethyl)-8-(trifluoromethyl)-[1,2,4]triazolo[1,5-a]pyridine-6-carbonitrile]
8.84	Cc1cc(C(F)(F)F)c2nc(CCc3nc(N4CCCC4)nn3C)nn2c1C [Example 84, 5,6-Dimethyl-2-(2-(1-methyl-3-(pyrrolidin-1-yl)-1H-1,2,4-triazol-5-yl)ethyl)-8-(trifluoromethyl)-[1,2,4]triazolo[1,5-a]pyridine]
8.37	Cc1c(Cl)cc(O)c2nc(CCc3nc(N4CCCC4)nn3C)nn12 [Example 85, 6-Chloro-5-methyl-2-(2-(1-methyl-3-(pyrrolidin-1-yl)-1H-1,2,4-triazol-5-yl)ethyl)-[1,2,4]triazolo[1,5-a]pyridin-8-ol]
8.46	CCc1cc(C(F)(F)F)c2nc(CCc3nc(N4CCCC4)nn3C)nn2c1C [Example 86, 6-Ethyl-5-methyl-2-[2-(2-methyl-5-pyrrolidin-1-yl-2H-[1,2,4]triazol-3-yl)-ethyl]-8-trifluoromethyl-[1,2,4]triazolo[1,5-a]pyridine]
